Results from ChEMBL document CHEMBL6134867, “Design and Synthesis of FR-β Targeting Chimeric Molecules for Reprogramming Tumor-Associated Macrophages Using 6-Substituted Pyrrolo[2,3-d]pyrimidines as Targeting Ligands” (J Med Chem, 2025).
Active and inactive are the calls of the source. No cut-off for these calls is given here.

Key:
BMDM [1] = test: Induction of macrophage repolarization in FR-beta expressing IL-4 differentiated M2 phenotype mouse BMDM cells assessed as reprogramming to M1 phenotype by measuring downregulation of IL-10 level at 10 nM incubated for 24 hrs by ELISA; assay type: functional, cell-based
[2] = Toxicity against BALB/c mouse xenografted with mouse 4T1 cells assessed as effect on body weight at 1 mg/kg, iv qd for 14 days and measured every day; assay type: organism-based; settings: in vivo, 336 h, time 14 day
4T1 [3] = test: Cytotoxicity against mouse 4T1 cells assessed as reduction in cell viability incubated for 24 hrs by CCK-8 assay; assay type: toxicity, cell-based; settings: 4t1, 24 h
[4] = Toxicity against BALB/c mouse xenografted with mouse 4T1 cells assessed as pathological changes in liver at 1 mg/kg, iv qd for 14 days by Hematoxylin-Eosin staining based analysis; assay type: organism-based; settings: in vivo, 336 h, time 14 day
Mus musculus [5] = test: In vivo transition from anti-inflammatory to pro-inflammatory phenotypes in BALB/c mouse xenografted with mouse 4T1 cells assessed as decrease in proportion of Ly6C+ and Ly6G+ cells within CD45+ population at 1 mg/kg, iv qd for 14 days by flow cytometry; assay type: functional, organism-based; settings: time 14.0 day
BMDM [6] = test: Induction of macrophage repolarization in FR-beta expressing IL-4 differentiated M2 phenotype mouse BMDM cells assessed as reprogramming to M1 phenotype by measuring upregulation of IL-6 level at 10 nM incubated for 24 hrs by ELISA; assay type: functional, cell-based
[7] = Toxicity against BALB/c mouse xenografted with mouse 4T1 cells assessed as pathological changes in heart at 1 mg/kg, iv qd for 14 days by Hematoxylin-Eosin staining based analysis; assay type: organism-based; settings: in vivo, 336 h, time 14 day
[8] = Toxicity against BALB/c mouse assessed as increase in TNF-alpha level in plasma at 20 ug, iv measured after 2 hrs by ELISA; assay type: organism-based; settings: in vivo, dose 20 µg
4T1 [9] = test: Antitumor activity against mouse 4T1 cells xenografted in BALB/c mouse assessed as lifespan of animal's survival at 1 mg/kg, iv qd for 14 days; assay type: functional; settings: time 14 day
BMDM [10] = test: Induction of macrophage repolarization in FR-beta expressing IL-4 differentiated M2 phenotype mouse BMDM cells assessed as reprogramming to M1 phenotype by measuring upregulation of TLR7 expression at 10 nM incubated for 24 hrs by western blot analysis; assay type: functional, cell-based
[11] = Toxicity against BALB/c mouse xenografted with mouse 4T1 cells assessed as heightened inflammatory response in lung at 1 mg/kg, iv qd for 14 days by Hematoxylin-Eosin staining based analysis; assay type: organism-based; settings: in vivo, 336 h, time 14 day
BMDM [12] = test: Induction of macrophage repolarization in FR-beta expressing IL-4 differentiated M2 phenotype mouse BMDM cells assessed as reprogramming to M1 phenotype by measuring downregulation of Arg1 mRNA expression at 10 nM incubated for 24 hrs by RT-qPCR analysis; assay type: functional, cell-based
BMDM [13] = test: Induction of macrophage repolarization in FR-beta expressing IL-4 differentiated M2 phenotype mouse BMDM cells assessed as reprogramming to M1 phenotype by measuring downregulation of Arg1 expression at 10 nM incubated for 24 hrs by western blot analysis; assay type: functional, cell-based
BMDM [14] = test: Induction of macrophage repolarization in FR-beta expressing IL-4 differentiated M2 phenotype mouse BMDM cells assessed as reprogramming to M1 phenotype by measuring upregulation of iNOS expression at 10 nM incubated for 24 hrs by western blot analysis; assay type: functional, cell-based
[15] = Prodrug release assessed as IMDQ-SH formation in presence of 10 mM GSH and measured within 1 hr by HPLC analysis; assay type: ADME
[16] = Toxicity against BALB/c mouse xenografted with mouse 4T1 cells assessed as pathological changes in spleen at 1 mg/kg, iv qd for 14 days by Hematoxylin-Eosin staining based analysis; assay type: organism-based; settings: in vivo, 336 h, time 14 day
BMDM [17] = test: Induction of macrophage repolarization in FR-beta expressing IL-4 differentiated M2 phenotype mouse BMDM cells assessed as reprogramming to M1 phenotype by measuring TNF-alpha mRNA expression at 10 nM incubated for 24 hrs by RT-qPCR analysis; assay type: functional, cell-based
BMDM [18] = test: Induction of macrophage repolarization in FR-beta expressing IL-4 differentiated M2 phenotype mouse BMDM cells assessed as reprogramming to M1 phenotype by measuring TNF-alpha level at 10 nM incubated for 24 hrs by ELISA; assay type: functional, cell-based
Mus musculus [19] = test: In vivo transition from anti-inflammatory to pro-inflammatory phenotypes in BALB/c mouse xenografted with mouse 4T1 cells assessed as upregulation in proportion of CD8+ cells at 1 mg/kg, iv qd for 14 days by flow cytometry; assay type: functional, organism-based; settings: time 14.0 day
[20] = Stability of the compound in PBS measured at 4 degC and for 15 days; assay type: physicochemical; settings: time 15 day, read-out: Stability
[21] = Prodrug release assessed as IMDQ formation in presence of 10 mM GSH and measured after 1 to 8 hrs by HPLC analysis; assay type: ADME; settings: time 1-8 hrs
BMDM [22] = test: Induction of macrophage repolarization in FR-beta expressing IL-4 differentiated M2 phenotype mouse BMDM cells assessed as reprogramming to M1 phenotype by measuring downregulation of CD206 mRNA expression at 10 nM incubated for 24 hrs by RT-qPCR analysis; assay type: functional, cell-based
4T1 [23] = test: Antitumor activity against mouse 4T1 cells xenografted in BALB/c mouse assessed as inhibition of tumor growth at 1 mg/kg, iv qd for 14 days and measured every day by digital caliper analysis; assay type: functional, organism-based; settings: time 14.0 day
BMDM [24] = test: Induction of macrophage repolarization in FR-beta expressing IL-4 differentiated M2 phenotype mouse BMDM cells assessed as reprogramming to M1 phenotype by measuring downregulation of IL-10 mRNA expression at 10 nM incubated for 24 hrs by RT-qPCR analysis; assay type: functional, cell-based
[25] = Toxicity against BALB/c mouse xenografted with mouse 4T1 cells assessed as pathological changes in kidney at 1 mg/kg, iv qd for 14 days by Hematoxylin-Eosin staining based analysis; assay type: organism-based; settings: in vivo, 336 h, time 14 day
BMDM [26] = test: Induction of macrophage repolarization in FR-beta expressing IL-4 differentiated M2 phenotype mouse BMDM cells assessed as reprogramming to M1 phenotype by measuring upregulation of iNOS mRNA expression at 10 nM incubated for 24 hrs by RT-qPCR analysis; assay type: functional, cell-based
BMDM [27] = test: Induction of macrophage repolarization in FR-beta expressing IL-4 differentiated M2 phenotype mouse BMDM cells assessed as reprogramming to M1 phenotype by measuring upregulation of IL-6 mRNA expression at 10 nM incubated for 24 hrs by RT-qPCR analysis; assay type: functional, cell-based
BMDM [28] = test: Induction of macrophage repolarization in FR-beta expressing IL-4 differentiated M2 phenotype mouse BMDM cells assessed as reprogramming to M1 phenotype by measuring upregulation of TLR7 mRNA expression at 10 nM incubated for 24 hrs by RT-qPCR analysis; assay type: functional, cell-based
Mus musculus [29] = test: In vivo transition from anti-inflammatory to pro-inflammatory phenotypes in BALB/c mouse xenografted with mouse 4T1 cells assessed as CD4+ cells population at 1 mg/kg, iv qd for 14 days by flow cytometry; assay type: functional, organism-based; settings: time 14.0 day
Mus musculus [30] = test: In vivo repolarization of macrophages from M2 phenotype to M1 phenotype in BALB/c mouse xenografted with mouse 4T1 cells assessed as increase in M1 (F4/80+CD11b+CD86+) to M2 (F4/80+CD11b+CD206+) macrophage ratio in tumor at 1 mg/kg, iv qd for 14 days by flow cytometry; assay type: functional, organism-based; settings: time 14.0 day
[31] = Toxicity against BALB/c mouse assessed as increase in IL-6 level in plasma at 20 ug, iv measured after 2 hrs by ELISA; assay type: organism-based; settings: in vivo, dose 20 µg
[32] = Cytotoxicity against mouse BMDM cells assessed as reduction in cell viability incubated for 24 hrs by CCK-8 assay; assay type: toxicity, cell-based
HUVEC [33] = test: Cytotoxicity against human HUVEC cells assessed as reduction in cell viability incubated for 24 hrs by CCK-8 assay; assay type: toxicity, cell-based
BMDM [34] = test: Induction of macrophage repolarization in FR-beta expressing IL-4 differentiated M2 phenotype mouse BMDM cells assessed as reprogramming to M1 phenotype by measuring downregulation of CD206 expression at 10 nM incubated for 24 hrs by western blot analysis; assay type: functional, cell-based
[35] = Stability of the compound in mouse plasma at 5 uM and measured at 37 degC and for up to 12 hrs by HPLC analysis; assay type: ADME, cell-free; settings: read-out: Stability
BMDM [36] = test: Induction of macrophage repolarization in FR-beta expressing IL-4 differentiated M2 phenotype mouse BMDM cells assessed as reprogramming to M1 phenotype by measuring upregulation of MyD88 expression at 10 nM incubated for 24 hrs by western blot analysis; assay type: functional, cell-based
[37] = Toxicity against BALB/c mouse xenografted with mouse 4T1 cells assessed as decrease in body weight at 0.333 mg/kg, iv qd for 14 days and measured every day; assay type: organism-based; settings: in vivo, 336 h, time 14 day
4T1 [38] = test: Antitumor activity against mouse 4T1 cells xenografted in BALB/c mouse assessed as inhibition of tumor growth at 0.333 mg/kg, iv qd for 14 days and measured every day by digital caliper analysis; assay type: functional, organism-based; settings: time 14.0 day
[39] = Toxicity against BALB/c mouse xenografted with mouse 4T1 cells assessed as heightened inflammatory response in lung at 0.333 mg/kg, iv qd for 14 days by Hematoxylin-Eosin staining based analysis; assay type: organism-based; settings: in vivo, 336 h, time 14 day
4T1 [40] = test: Cytotoxicity against mouse 4T1 cells assessed as reduction in cell viability at >10 uM incubated for 24 hrs by CCK-8 assay; assay type: toxicity, cell-based; settings: 4t1, 24 h
[41] = Cytotoxicity against mouse BMDM cells assessed as reduction in cell viability at >10 uM incubated for 24 hrs by CCK-8 assay; assay type: toxicity, cell-based
Mus musculus [42] = test: In vivo repolarization of macrophages from M2 phenotype to M1 phenotype in BALB/c mouse xenografted with mouse 4T1 cells assessed as increase in M1 (F4/80+CD11b+CD86+) to M2 (F4/80+CD11b+CD206+) macrophage ratio in tumor at 0.333 mg/kg, iv qd for 14 days by flow cytometry; assay type: functional, organism-based; settings: time 14.0 day
4T1 [43] = test: Antitumor activity against mouse 4T1 cells xenografted in BALB/c mouse assessed as lifespan of animal's survival at 0.333 mg/kg, iv qd for 14 days; assay type: functional; settings: time 14 day
HUVEC [44] = test: Cytotoxicity against human HUVEC cells assessed as reduction in cell viability at >10 uM incubated for 24 hrs by CCK-8 assay; assay type: toxicity, cell-based

Compound	Activity (BMDM [1])	Activity (BMDM [6])	Activity [8]	Activity (BMDM [10])	Activity (BMDM [12])	Activity (BMDM [13])	Activity (BMDM [14])	Activity (BMDM [17])	Activity (BMDM [18])	Activity (BMDM [22])	Activity (BMDM [24])	Activity (BMDM [26])	Activity (BMDM [27])	Activity (BMDM [28])	Activity [31]	Activity (BMDM [34])	Activity (BMDM [36])	also measured
CCCCc1nc2c(N)nc3ccccc3c2n1Cc1ccc(CNC(=O)OCCSSC[C@H](NC(=O)CC[C@H](NC(=O)c2ccc(CCCCc3cc4c(=O)[nH]c(N)nc4[nH]3)cc2)C(=O)O)C(=O)O)cc1	Active; More Pronounced Effect Compared To Fgt-2 Observed	Active; More Pronounced Effect Compared To Fgt-2 Observed	Non-toxic	Active	Active; More Pronounced Effect Compared To Fgt-2,3 Observed	Active; More Pronounced Effect Compared To Fgt-2,3 Observed	Active; More Pronounced Effect Compared To Fgt-2,3 Observed	inactive	inactive	Active; More Pronounced Effect Compared To Fgt-2,3 Observed	Active; More Pronounced Effect Compared To Fgt-2 Observed	Active; More Pronounced Effect Compared To Fgt-2,3 Observed	Active; More Pronounced Effect Compared To Fgt-2 Observed	Active	Non-toxic	Active; More Pronounced Effect Compared To Fgt-2,3 Observed	Active	Activity [2]: Non-toxic; Activity (4T1 [3]): Non-toxic; Activity [4]: Non-toxic; Activity (Mus musculus [5]): Active; Activity [7]: Non-toxic; Survival (4T1 [9]): 35 days; Activity [11]: Non-toxic; Drug metabolism [15]: metabolite_detected; Activity [16]: Non-toxic; Activity (Mus musculus [19]): Active; remaining at 360 h [20]: > 95%; Drug metabolism [21]: metabolite_detected; Activity (4T1 [23]): Active; Most Pronounced Effect Compared To Fgt-1,2,3 Observed; Activity [25]: Non-toxic; Activity (Mus musculus [29]): inactive; Activity (Mus musculus [30]): Active; Activity [32]: Non-toxic; Activity (HUVEC [33]): Non-toxic; remaining at 12 h, 5 µM [35]: 95%
CCCCc1nc2c(N)nc3ccccc3c2n1Cc1ccc(CN)cc1	Active	Active	Toxic	Active	Active	Active	Active	inactive	inactive	Active	Active	Active	Active	Active	Toxic	Active	Active	Activity [37]: Toxic; Activity (4T1 [38]): Active; Diminished Antitumor Efficacy Compared To Fgt-1 To 4 Observed; Activity [39]: Toxic; Activity (4T1 [40]): Toxic; Activity [41]: Toxic; Activity (Mus musculus [42]): inactive; Survival (4T1 [43]): 27 days; Activity (HUVEC [44]): Toxic
